Some results are limits rather than exact numbers.

Test [1] addresses T1, Peroxisome proliferator-activated receptor alpha (Homo sapiens, UniProt Q07869).
T1 sequence (Q07869 whole entry): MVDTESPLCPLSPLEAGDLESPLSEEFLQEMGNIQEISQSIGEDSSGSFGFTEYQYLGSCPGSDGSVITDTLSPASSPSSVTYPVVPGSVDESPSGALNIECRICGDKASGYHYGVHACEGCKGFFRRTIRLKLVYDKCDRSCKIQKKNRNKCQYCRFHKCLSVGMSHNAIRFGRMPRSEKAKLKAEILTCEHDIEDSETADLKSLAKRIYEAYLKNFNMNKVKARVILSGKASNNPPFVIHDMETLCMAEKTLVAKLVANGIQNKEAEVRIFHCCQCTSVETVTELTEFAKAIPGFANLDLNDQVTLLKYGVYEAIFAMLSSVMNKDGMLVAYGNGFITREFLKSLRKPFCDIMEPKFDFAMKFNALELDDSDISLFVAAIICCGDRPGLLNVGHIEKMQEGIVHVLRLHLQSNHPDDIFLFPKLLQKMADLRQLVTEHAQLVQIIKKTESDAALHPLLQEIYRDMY
Description: Agonist activity at human PPARalpha receptor by cell based transactivation assay. The class given is functional.

Test [2] addresses T2, Peroxisome proliferator-activated receptor delta (Homo sapiens, UniProt Q03181).
T2 sequence (Q03181 whole entry): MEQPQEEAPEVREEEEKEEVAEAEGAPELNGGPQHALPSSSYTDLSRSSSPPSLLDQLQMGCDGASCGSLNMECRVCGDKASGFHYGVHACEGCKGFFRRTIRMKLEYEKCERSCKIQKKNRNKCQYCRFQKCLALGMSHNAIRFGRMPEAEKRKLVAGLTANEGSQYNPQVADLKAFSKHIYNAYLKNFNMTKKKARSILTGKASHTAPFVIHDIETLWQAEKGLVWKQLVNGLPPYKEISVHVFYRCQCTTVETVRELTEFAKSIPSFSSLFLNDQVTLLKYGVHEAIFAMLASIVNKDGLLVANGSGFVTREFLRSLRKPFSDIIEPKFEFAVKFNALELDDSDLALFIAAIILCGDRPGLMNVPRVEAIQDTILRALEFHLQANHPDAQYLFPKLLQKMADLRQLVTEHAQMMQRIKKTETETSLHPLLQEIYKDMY
In words: Agonist activity at human PPARdelta receptor by cell based transactivation assay.

The target of test [3] is T3, Peroxisome proliferator-activated receptor gamma (Homo sapiens, UniProt P37231).
T3 sequence (P37231 whole entry): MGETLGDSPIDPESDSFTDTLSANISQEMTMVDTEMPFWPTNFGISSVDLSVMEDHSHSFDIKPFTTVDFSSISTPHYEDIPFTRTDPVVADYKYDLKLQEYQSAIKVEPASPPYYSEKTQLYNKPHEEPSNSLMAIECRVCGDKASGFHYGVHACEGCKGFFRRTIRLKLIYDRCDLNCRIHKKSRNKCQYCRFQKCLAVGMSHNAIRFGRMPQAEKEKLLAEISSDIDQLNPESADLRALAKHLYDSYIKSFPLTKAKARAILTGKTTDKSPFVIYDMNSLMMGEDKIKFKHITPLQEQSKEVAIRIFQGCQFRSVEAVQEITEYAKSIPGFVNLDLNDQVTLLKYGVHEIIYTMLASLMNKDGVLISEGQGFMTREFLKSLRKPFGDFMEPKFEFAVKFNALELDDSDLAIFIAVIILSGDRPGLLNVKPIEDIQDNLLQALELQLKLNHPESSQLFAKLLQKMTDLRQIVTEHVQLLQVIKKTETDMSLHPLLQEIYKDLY
Description: Agonist activity at human PPARgamma receptor by cell based transactivation assay

The species named for test [4] is Homo sapiens. In words: Selectivity of EC50 for human PPARgamma receptor over EC50 for human PPARalpha receptor.
The species entered for test [5] is Homo sapiens. Description: Selectivity of EC50 for human PPARalpha receptor over EC50 for human PPARgamma receptor.
The species named for test [6] is Homo sapiens. Description: Selectivity of EC50 for human PPARalpha receptor over EC50 for human PPARdelta receptor.

As for `CCCc1cc(C(=O)c2ccc(-c3ccccc3)cc2)ccc1OCCCN1CCCc2c(OC(C)(C)C(=O)O)cccc21`, the values for the EC50 in test [1], in test [2] and in test [3] were 3990 nM, greater than 10000 nM and 50 nM, respectively.

For `CCCc1cc(C(=O)c2ccc(-c3ccccc3)cc2)ccc1OCCCn1ccc2cc(OC(C)(C)C(=O)O)ccc21`, the values for the EC50 in test [1], in test [2] and in test [3] were 1920 nM, greater than 10000 nM and 120 nM, respectively. In test [4], this compound yielded a fold change (FC) of 15.

Turning to `CCCc1c(OCCCN2CCCc3cc(OC(C)(C)C(=O)O)ccc32)ccc2cc(C(=O)c3ccccc3)ccc12`, the EC50 (in general, the concentration giving half of the maximal effect) in test [1] was 240 nM; in test [2], greater than 10000 nM; in test [3] it was 540 nM.

`CCCc1c(OCCCn2ccc3cc(OC(C)(C)C(=O)O)ccc32)ccc2c(C(=O)c3ccccc3)cccc12`: the figures for the EC50 in test [1], in test [2] and in test [3] were 200 nM, greater than 10000 nM and 3500 nM, respectively.

Consider `CCCc1c(OCCCn2ccc3cc(OC(C)(C)C(=O)O)ccc32)ccc2cc(C(C)=O)ccc12`, for which the results for the EC50 in test [1], in test [2] and in test [3] were greater than 10000 nM, greater than 10000 nM and 1070 nM, respectively.

As to `CN(CCOc1ccc(CC2SC(=O)NC2=O)cc1)c1ccccn1` (stereo not given), the Activity in test [4] was determined as 80.

In the case of `CCCc1c(OCCCn2ccc3cc(OC(C)(C)C(=O)O)ccc32)ccc2cc(C(=O)c3ccc(F)cc3)ccc12`, the concentration giving a half-maximal response (EC50) in test [1] was greater than 10000 nM; in test [2] it was greater than 10000 nM; in test [3], 2120 nM.

As for `CCCc1cc(C(=O)c2ccc(OC)cc2)ccc1OCCCn1ccc2cc(OC(C)(C)C(=O)O)ccc21`, the EC50 in test [1] was 50 nM; in test [2], 4450 nM; in test [3] it was 470 nM.

Regarding `CCCc1cc(C(=O)c2ccccc2)ccc1OCCCn1ccc2cc(OC(C)(C)C(=O)O)ccc21`, the EC50 in test [1] stood at 40 nM; in test [2], 5270 nM; in test [3], 420 nM.

In the case of `CCCc1c(OCCCn2ccc3cc(OC(C)(C)C(=O)O)ccc32)ccc2cc(C(=O)c3ccccc3)ccc12`, the EC50 in test [2] was greater than 10000 nM.

As to `CCCc1cc(C(=O)c2ccc(-c3ccccc3)cc2)ccc1OCCCN1CCCc2cc(OC(C)(C)C(=O)O)ccc21`, the 50% effective concentration (EC50) in test [1] was greater than 10000 nM; in test [2], greater than 10000 nM; in test [3], 100 nM.

Take `CCCc1c(OCCCn2ccc3cc(OC(C)(C)C(=O)O)ccc32)ccc2cc(C(=O)c3ccoc3)ccc12`: the values for the EC50 in test [1], in test [2] and in test [3] were 130 nM, greater than 10000 nM and 430 nM, respectively.

For `CCCc1cc(C(=O)c2ccc(-c3ccccc3)cc2)ccc1OCCCn1ccc2c(OC(C)(C)C(=O)O)cccc21`, the concentration giving a half-maximal response (EC50) was 4070 nM in test [1], greater than 10000 nM in test [2] and 300 nM in test [3]. Moreover, the fold change (FC) in test [5] was greater than 300; in test [6], greater than 300; in test [4], 15.

Take `CCCc1cc(C(=O)c2ccc3ccccc3c2)ccc1OCCCn1ccc2c(OC(C)(C)C(=O)O)cccc21`: the EC50 was 30 nM in test [1], greater than 10000 nM in test [2] and 2800 nM in test [3]. The fold change (FC) in test [5] and in test [6] was greater than 100 in each case.

For `CCCc1c(OCCCn2ccc3cc(OC(C)(C)C(=O)O)ccc32)ccc2cc(Cc3ccccc3)ccc12`, the concentration giving a half-maximal response (EC50) in test [1], in test [2] and in test [3] was greater than 10000 nM each time.

In the case of `CCCc1cc(C(=O)c2ccc3ccccc3c2)ccc1OCCCn1ccc2cc(OC(C)(C)C(=O)O)ccc21`, the results for the concentration for a half-maximal effect (EC50) in test [1], in test [2] and in test [3] were 30 nM, greater than 10000 nM and 370 nM, respectively.

In the case of `CCCc1cc(C(=O)c2ccc(F)cc2)ccc1OCCCn1ccc2cc(OC(C)(C)C(=O)O)ccc21`, the EC50 in test [1] is 130 nM; in test [2] it was greater than 10000 nM; in test [3], 900 nM.

In the case of `CCCc1c(OCCCN2CCCc3c(OC(C)(C)C(=O)O)cccc32)ccc2cc(C(=O)c3ccccc3)ccc12`, the EC50 in test [1] is 120 nM; in test [2], greater than 10000 nM; in test [3], 100 nM.

Regarding `CCCc1c(OCCCn2ccc3cc(OC(C)(C)C(=O)O)ccc32)ccc2cc(C(=O)c3ccc(OC)cc3)ccc12`, the half-maximal effective concentration (EC50) in test [1] was 130 nM; in test [2] it was greater than 10000 nM; in test [3] it was 510 nM.

For `CCCc1c(OCCCn2ccc3cc(OC(C)(C)C(=O)O)ccc32)ccc2cc(C(=O)c3ccncc3)ccc12`, the values for the concentration for a half-maximal effect (EC50) in test [1], in test [2] and in test [3] were greater than 10000 nM, greater than 10000 nM and 2070 nM, respectively.

On to `CCCc1cc(C(=O)c2ccccc2)ccc1OCCCn1ccc2c(OC(C)(C)C(=O)O)cccc21`, for which the figures for the concentration giving a half-maximal response (EC50) in test [1], in test [2] and in test [3] were 30 nM, greater than 10000 nM and greater than 10000 nM, respectively.
